{"source": "patent US8992892B2", "about": "“Use of 1-(2,4-dihydroxy-phenyl)-3-(3-hydroxy-4-methoxy-phenyl)-propan-1-one” (SYMRISE AG, priority 2010, dated 2015)", "type_in_all_cases": "in vivo", "key": {"[1]": {"experiment": "Intensification of the sweet impression of a sugar solution, rated by a group of experts", "set-up": "key to Sweet impression (1-10) Specimen (Sucrose + (I)) / Sweet impression (1-10) Specimen (sucrose + substance): 1 = not sweet, 10 = extremely sweet", "description": "In order to quantify the intensification of the sweet impression, in each case the sweetness of a 5% sucrose solution was compared by a group of experts with a specimen containing 5% sucrose and 10 ppm, 25 ppm, 50 ppm or 75 ppm of the deoxy hesperetin dihydrochalcone (I) to be used according to the invention (rating: 1 [not sweet] to 10 [extremely sweet]).\nFor the assessment, i.e. calculation of the intensification (in %) of the sweet impression in each case the average values of the assessments of the group of experts for the sucrose solution and the specimen for comparison containing sucrose and deoxy hesperetin dihydrochalcone (I) were used.\nIn order to quantify the intensification of the sweetness impression, in each case the sweetness of a 5% sucrose solution was compared by a group of experts with a specimen containing 5% sucrose and 30 ppm or 50 ppm of a deoxy dihydrochalcone ((rating: 1 [not sweet] to 10 [extremely sweet])).\nFor the assessment, i.e. calculation of the intensification (in %) of the sweet impression in each case the average values of the assessments of the group of experts for the sucrose solution and the specimen containing sucrose and deoxy dihydrochalcone for comparison were used."}, "[2]": {"experiment": "Bitter reduction of a caffeine solution, rated by a group of experts", "description": "In order to quantify the decrease (i.e. the masking or reduction) in bitter impression in a specimen, the bitterness of a 500 ppm caffeinated solution was compared by a group of experts in each case with a specimen containing 500 ppm caffeine and also various concentrations of deoxy hesperetin dihydrochalcone (I) (rating: 1 [not bitter] to 10 [extremely bitter]).\nFor the assessment, i.e. calculation of the reduction (in %) of the bitter impression in each case the average values of the assessments of the group of experts for the caffeinated solution and the specimen to be compared containing caffeine and a substance to be assessed were used. 2,4-dihydroxybenzoic acid (2,4-DHB) was used here for comparison (reference) in accordance with U.S. Pat. No. 5,643,941."}, "[3]": {"experiment": "Bitter reduction of a naringin solution, rated by a group of experts", "conditions": "100 ppm naringin + 50 ppm (I)", "description": "(§1) In order to quantify the decrease (i.e. the masking or reduction) in the bitter impression in a specimen, the bitterness of a solution containing either 100 ppm naringin or 250 ppm salicin or 500 ppm epigallocatechin gallate and 75 ppm ascorbic acid was compared by a group of experts in each case with a specimen containing either 100 ppm naringin or 250 ppm salicin or 500 ppm epigallocatechin gallate and 75 ppm ascorbic acid and additionally 50 ppm deoxy hesperetin dihydrochalcone (I) (rating: 1 [not bitter] to 10 [extremely bitter]).\n(§2) For the assessment, i.e. calculation of the reduction (in %) of the bitter impression in each case the average values of the assessments of the group of experts for the respective bitter substance solution and the bitter substance solution also containing 50 ppm deoxy hesperetin dihydrochalcone (I) were used."}, "[4]": {"experiment": "Bitter reduction of a salicin solution, rated by a group of experts", "conditions": "250 ppm salicin + 50 ppm (I)", "description": "as §1, §2"}, "[5]": {"experiment": "Bitter reduction of an epigallocatechin gallate solution, rated by a group of experts", "conditions": "500 ppm epigallocatechin gallate + 75 ppm ascorbic acid + 50 ppm (I)", "description": "as §1, §2"}, "[6]": {"experiment": "Inherent sweetness in water against a sucrose concentration series (sucrose equivalence), panelists", "description": "(§3) The panelists were asked to test each solution of the compound (I) in water against the sucrose series and to rate it according is degree of sweetness (sucrose equivalence). From the results produced by the panelists it was possible to determine the inherent sweetness of the deoxy hesperetin dihydrochalcone (I) for the above-mentioned concentrations. Apart from the sucrose equivalence of the solutions of the compound (I) in water (i.e. without sucrose) the sucrose equivalence in a 5% sucrose solution was also determined with a corresponding quantity of compound (I)."}, "[7]": {"experiment": "Sucrose equivalence in a 5% sucrose solution with (I), panelists", "conditions": "for Sucrose equivalence in a 5% sucrose solution with (I), Calculation (5 + x) %: purely additive expected value; for synergy or synergistic additional effect: determined vs theoretically expected value", "description": "as §3\nIn all the cases tested a synergistic intensification in sweetness was found when an in itself not sweet concentration of deoxy hesperetin dihydrochalcone (I) was added. So it could in theory be expected that a 5% sucrose solution (i.e. a sucrose solution which sensorially by definition corresponds to 5% sucrose equivalents), containing 10 ppm, 25 ppm, 50 ppm or 75 ppm deoxy hesperetin dihydrochalcone (I), through a purely additive effect of the inherent sweetness of deoxy hesperetin dihydrochalcone (I) (see the sucrose equivalence determined in water) results in a sweetness of approximately 5.13%, 5.33%, 5.58% and again 5.58% sucrose equivalents. […] This corresponds in view of the purely theoretically expected values to a synergy or a synergistic additional effect of approximately 25%, 29%, 47% or 27%. It is noticeable that at the maximum tested concentration of 75 ppm—as might be expected—neither the maximum absolute nor the maximum synergistic intensification was measured."}, "[8]": {"experiment": "Sucrose equivalence in a 5% sucrose solution with (I), panelists", "conditions": "0.0100 % by weight (I); purely additive expected value"}, "[9]": {"conditions": "Application example 4: 50 ppm deoxy dihydrochalcone + 5% sucrose vs sucrose solution"}, "[10]": {"conditions": "Application example 4: 50 ppm deoxy dihydrochalcone + 5% sucrose, rating 1-10"}, "[11]": {"conditions": "100 ppm substance + 500 ppm caffeine vs caffeinated solution"}, "[12]": {"conditions": "100 ppm substance + 500 ppm caffeine, rating 1 [not bitter] to 10 [extremely bitter]"}}, "data": [{"smiles": "COc1cc(CCC(=O)c2ccc(O)cc2O)ccc1O", "note": "[2′,4,4′-trihydroxy-3-methoxy dihydrochalcone, reference compound]", "values": [{"measurement": "Intensification of the sweet effect", "setting": "[1]; [9]", "value": 8, "unit": "%"}, {"measurement": "Sweet impression (1-10) Specimen (sucrose + substance)", "setting": "[1]; [10]", "value": "5.6 ± 1.4"}]}, {"smiles": "COc1ccc(CCC(=O)c2ccc(O)cc2O)cc1O", "note": "[deoxy hesperetin dihydrochalcone (I), 1-(2,4-dihydroxy-phenyl)-3-(3-hydroxy-4-methoxy-phenyl)-propan-1-one]", "values": [{"measurement": "Reduction in bitter impression", "setting": "[2]; 10 ppm substance + 500 ppm caffeine vs caffeinated solution", "value": 2, "unit": "%"}, {"measurement": "Bitter impression (1-10) Specimen (Caffeine + substance)", "setting": "[2]; 10 ppm substance + 500 ppm caffeine, rating 1-10", "value": "4.8 ± 1.6"}, {"measurement": "Reduction in bitter impression", "setting": "[2]; 25 ppm substance + 500 ppm caffeine vs caffeinated solution", "value": 26, "unit": "%"}, {"measurement": "Bitter impression (1-10) Specimen (Caffeine + substance)", "setting": "[2]; 25 ppm substance + 500 ppm caffeine, rating 1-10", "value": "3.8 ± 1.5"}, {"measurement": "Reduction in bitter impression", "setting": "[2]; 50 ppm substance + 500 ppm caffeine vs caffeinated solution", "value": 11, "unit": "%"}, {"measurement": "Bitter impression (1-10) Specimen (Caffeine + substance)", "setting": "[2]; 50 ppm substance + 500 ppm caffeine, rating 1-10", "value": "3.7 ± 1.6"}, {"measurement": "Reduction in bitter impression", "setting": "[2]; [11]", "value": 3, "unit": "%"}, {"measurement": "Bitter impression (1-10) Specimen (Caffeine + substance)", "setting": "[2]; [12]", "value": "4.9 ± 1.9"}, {"measurement": "Reduction in bitter impression", "setting": "[3]", "value": 7, "unit": "%"}, {"measurement": "Bitter impression (1-10) Bitter substance + (I)", "setting": "[3]; rating 1-10", "value": "6.4 ± 2.4"}, {"measurement": "Reduction in bitter impression", "setting": "[4]", "value": 15, "unit": "%"}, {"measurement": "Bitter impression (1-10) Bitter substance + (I)", "setting": "[4]; rating 1-10", "value": "6.5 ± 2.2"}, {"measurement": "Reduction in bitter impression", "setting": "[5]", "value": 10, "unit": "%"}, {"measurement": "Bitter impression (1-10) Bitter substance + (I)", "setting": "[5]; rating 1-10", "value": "6.1 ± 2.9"}, {"measurement": "Intensification of the sweet impression", "setting": "[1]; 10 ppm (I) + 5% sucrose vs sucrose solution", "value": 21, "unit": "%"}, {"measurement": "Sweet impression (1-10) Specimen (Sucrose + (I))", "setting": "[1]; 10 ppm (I) + 5% sucrose, rating 1 [not sweet] to 10 [extremely sweet]", "value": "6.4 ± 1.6"}, {"measurement": "Intensification of the sweet impression", "setting": "[1]; 25 ppm (I) + 5% sucrose vs sucrose solution", "value": 42, "unit": "%"}, {"measurement": "Sweet impression (1-10) Specimen (Sucrose + (I))", "setting": "[1]; 25 ppm (I) + 5% sucrose, rating 1-10", "value": "6.9 ± 1.9"}, {"measurement": "Intensification of the sweet impression", "setting": "[1]; 50 ppm (I) + 5% sucrose vs sucrose solution", "value": 48, "unit": "%"}, {"measurement": "Sweet impression (1-10) Specimen (Sucrose + (I))", "setting": "[1]; 50 ppm (I) + 5% sucrose, rating 1-10", "value": "8.2 ± 0.9"}, {"measurement": "Intensification of the sweet impression", "setting": "[1]; 75 ppm (I) + 5% sucrose vs sucrose solution", "value": 21, "unit": "%"}, {"measurement": "Sweet impression (1-10) Specimen (Sucrose + (I))", "setting": "[1]; 75 ppm (I) + 5% sucrose, rating 1-10", "value": "7.1 ± 1.7"}, {"measurement": "Intensification of the sweet effect", "setting": "[1]; [9]", "value": 48, "unit": "%"}, {"measurement": "Sweet impression (1-10) Specimen (sucrose + substance)", "setting": "[1]; [10]", "value": "8.2 ± 0.9"}, {"measurement": "sweetness-intensifying effect", "setting": "[1]; own investigations", "value": "strong, sweetness-intensifying effect"}, {"measurement": "sweetness intensifying effect compared with structurally related substances (1)-(3)", "setting": "[1]; see Application example 4", "value": "clearly the most powerful compound"}, {"measurement": "Determination of the sucrose equivalence in water (without sucrose)", "setting": "[6]; 0.0010 % by weight (I) in water", "value": 0.13, "unit": "%"}, {"measurement": "Determination of the sucrose equivalence in water (without sucrose)", "setting": "[6]; 0.0025 % by weight (I) in water", "value": 0.33, "unit": "%"}, {"measurement": "Determination of the sucrose equivalence in water (without sucrose)", "setting": "[6]; 0.0050 % by weight (I) in water", "value": 0.58, "unit": "%"}, {"measurement": "Determination of the sucrose equivalence in water (without sucrose)", "setting": "[6]; 0.0075 % by weight (I) in water", "value": 0.58, "unit": "%"}, {"measurement": "Determination of the sucrose equivalence in water (without sucrose)", "setting": "[6]; 0.0100 % by weight (I) in water", "value": 0.79, "unit": "%"}, {"measurement": "own sweetness of the compound", "setting": "[6]; own investigations", "value": "not in itself particularly sweet"}, {"measurement": "Sucrose equivalence in a 5% sucrose solution with (I), Determination", "setting": "[7]; 0.0010 % by weight (10 ppm) (I) in 5% sucrose", "value": 6.4, "unit": "%"}, {"measurement": "Sucrose equivalence in a 5% sucrose solution with (I), Determination", "setting": "[7]; 0.0025 % by weight (25 ppm) (I) in 5% sucrose", "value": 6.9, "unit": "%"}, {"measurement": "Sucrose equivalence in a 5% sucrose solution with (I), Calculation (5 + x) %", "setting": "[7]; 0.0025 % by weight (25 ppm) (I)", "value": 5.33, "unit": "%"}, {"measurement": "Sucrose equivalence in a 5% sucrose solution with (I), Determination", "setting": "[7]; 0.0050 % by weight (50 ppm) (I) in 5% sucrose", "value": 8.2, "unit": "%"}, {"measurement": "Sucrose equivalence in a 5% sucrose solution with (I), Calculation (5 + x) %", "setting": "[7]; 0.0050 % by weight (50 ppm) (I)", "value": 5.58, "unit": "%"}, {"measurement": "Sucrose equivalence in a 5% sucrose solution with (I), Determination", "setting": "[7]; 0.0075 % by weight (75 ppm) (I) in 5% sucrose", "value": 7.1, "unit": "%"}, {"measurement": "Sucrose equivalence in a 5% sucrose solution with (I), Calculation (5 + x) %", "setting": "[7]; 0.0075 % by weight (75 ppm) (I)", "value": 5.58, "unit": "%"}, {"measurement": "synergy or synergistic additional effect", "setting": "[7]; 10 ppm (I) in 5% sucrose", "value": "approximately 25%"}, {"measurement": "synergy or synergistic additional effect", "setting": "[7]; 25 ppm (I) in 5% sucrose", "value": "~29", "unit": "%"}, {"measurement": "synergy or synergistic additional effect", "setting": "[7]; 50 ppm (I) in 5% sucrose", "value": "~47", "unit": "%"}, {"measurement": "synergy or synergistic additional effect", "setting": "[7]; 75 ppm (I) in 5% sucrose", "value": "~27", "unit": "%"}, {"measurement": "Sucrose equivalence in a 5% sucrose solution with (I), Calculation (5 + x) %", "setting": "[8]", "value": 5.79, "unit": "%"}]}, {"smiles": "O=C(O)c1ccc(O)cc1O", "note": "[2,4-DHB, 2,4-dihydroxybenzoic acid, reference compound]", "values": [{"measurement": "Reduction in bitter impression", "setting": "[2]; [11]", "value": 3, "unit": "%"}, {"measurement": "Bitter impression (1-10) Specimen (Caffeine + substance)", "setting": "[2]; [12]", "value": "5.0 ± 1.0"}]}, {"smiles": "O=C(CCc1ccc(O)cc1)c1ccc(O)cc1O", "note": "[davidigenin (1), davidigenin, reference compound]", "values": [{"measurement": "Intensification of the sweet effect", "setting": "[1]; Application example 4: 30 ppm deoxy dihydrochalcone + 5% sucrose vs sucrose solution", "value": 2, "unit": "%"}, {"measurement": "Sweet impression (1-10) Specimen (sucrose + substance)", "setting": "[1]; Application example 4: 30 ppm deoxy dihydrochalcone + 5% sucrose, rating 1-10", "value": "5.7 ± 1.4"}]}, {"smiles": "COc1ccc(CCC(=O)c2ccc(O)cc2O)cc1", "note": "[reference compound]", "values": [{"measurement": "Intensification of the sweet effect", "setting": "[1]; [9]", "value": 12, "unit": "%"}, {"measurement": "Sweet impression (1-10) Specimen (sucrose + substance)", "setting": "[1]; [10]", "value": "6.1 ± 1.8"}]}]}
